Measurements as given in patent US9163013B2, “Use of 1H-indazole-3-carboxamide compounds as glycogen synthase kinase 3 beta inhibitors” (AZIENDE CHIMICHE RIUNITE ANGELINI FRANCESCO A.C.R.A.F. …, priority 2012, dated 2015).
Values joined by “and” are separate entries in the source; they are usually repeats but may differ in a detail not shown here. Equal entries are not always repeated.

molecular target: T1, human GSK-3β (Homo sapiens (Human), UniProt P49841); test: Activity on human GSK-3β, substrate phosphorylation measured by LANCE technology; type: biochemical; conditions: 10 μM, duplicate, human recombinant GSK-3β, 90 minutes at 22° C.
T1 sequence (P49841 whole entry): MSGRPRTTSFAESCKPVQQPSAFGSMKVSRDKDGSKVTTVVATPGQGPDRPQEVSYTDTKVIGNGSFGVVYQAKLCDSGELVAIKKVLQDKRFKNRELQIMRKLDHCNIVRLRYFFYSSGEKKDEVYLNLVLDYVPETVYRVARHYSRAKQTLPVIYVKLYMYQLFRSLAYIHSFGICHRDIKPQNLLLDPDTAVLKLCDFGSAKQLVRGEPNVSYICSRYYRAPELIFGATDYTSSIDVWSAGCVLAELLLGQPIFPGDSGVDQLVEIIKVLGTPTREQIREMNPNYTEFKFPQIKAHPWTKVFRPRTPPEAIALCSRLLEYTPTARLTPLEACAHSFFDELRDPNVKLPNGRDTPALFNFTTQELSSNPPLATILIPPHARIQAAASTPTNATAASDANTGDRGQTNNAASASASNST
Procedure: Activity on human GSK-3β was assessed using the following methods (according to Meijer et al., Chem. Biol., 2003-10:1255-1266).
In a first screening assay, compounds were tested in duplicate at a concentration of 10 μM.
Human recombinant enzyme GSK-3β was incubated for 90 minutes at 22° C. in the presence of compounds or vehicle in a reaction buffer containing ATP plus 100 nM unphosphorylated specific substrate peptide (Ulight-[…]-amide). Substrate phosphorylation was measured by LANCE technology (PerkinElmer, Conn., USA).
The results, reported in the following Table 4, are expressed as a percent of inhibition of control specific activity obtained in the presence of the test compounds (as % inhibition at 10 μm).
(§1) In a second assay, the same compounds were assayed at five concentrations ranging from 100 μM to 10 nM with ten-fold dilutions in duplicate. Compounds 1 to 7, 9, 11 and 13 to 26 were tested using the same first assay, compounds 8, 10, 12, and 27 to 31 were tested in another assay based on the binding and displacement of AlexaFluor® 647 labeled, ATP-competitive Kinase inhibitor scaffold using LanthaScreen™ TR-FRET technology Eu Kinase assay packet according to manufacturer's instruction (Life Technologies, Italy).
(§2) The IC50 values (concentration causing a half maximal inhibition of control specific activity), reported in table 4, were determined by non-linear regression analysis of the inhibition curves generated with mean replicate values using Hill equation curve fitting.

| SMILES | % Inhibition [10 μM] | inhibition at 10 µM |
| --- | --- | --- |
| COc1ccc(CCN2CCC(CNC(=O)c3n[nH]c4ccc(OC)cc34)CC2)cc1 [Compound 2, 5-methoxy-N-({1-[2-(4-methoxyphenyl)ethyl]piperidin-4-yl}methyl)-1H-indazole-3-carboxamide] | 91% | > 90% |

same assay, conditions: LANCE phosphorylation assay; five concentrations 100 μM to 10 nM, duplicate; read-out: IC50

| SMILES | IC50 |
| --- | --- |
| COc1ccc(CCN2CCC(CNC(=O)c3n[nH]c4ccc(OC)cc34)CC2)cc1 [Compound 2, 5-methoxy-N-({1-[2-(4-methoxyphenyl)ethyl]piperidin-4-yl}methyl)-1H-indazole-3-carboxamide] | < 0.6 µM and 0.56 µM |
| COc1ccc2[nH]nc(C(=O)NCC3CCN(Cc4ccc(Cl)cc4Cl)CC3)c2c1 [Compound 3, N-{[1-(2,4-dichlorobenzyl)piperidin-4-yl]methyl}-5-methoxy-1H-indazole-3-carboxamide] | 0.31 µM |
| COc1ccc2[nH]nc(C(=O)NCC3CCN(Cc4ccc(C(F)(F)F)cc4)CC3)c2c1 [Compound 4, 5-methoxy-N-({1-[4-(trifluoromethyl)benzyl]piepridin-4-yl}methyl)-1H-indazole-3-carboxamide] | 0.64 µM |
| COc1ccc2[nH]nc(C(=O)NCC3CCN(Cc4ccc(OCc5ccccc5)cc4)CC3)c2c1 [Compound 5, N-({1-[4-(benzyloxy)benzyl]piperidin-4-yl}methyl)-5-methoxy-1H-indazole-3-carboxamide] | 0.35 µM |
| COc1ccc2[nH]nc(C(=O)NCC3CCN(Cc4ccc(O)cc4)CC3)c2c1 [Compound 6, N-{[1-(4-hydroxybenzyl)piperidin-4-yl]methyl}-5-methoxy-1H-indazole-3-carboxamide] | 0.4 µM |
| COC(=O)c1coc(CN2CCC(CNC(=O)c3n[nH]c4ccc(OC)cc34)CC2)n1 [Compound 9, Methyl 2-{[4-({[(5-methoxy-1H-indazol-3-yl)carbonyl]amino}methyl)piperidin-1-yl]methyl}-1,3-oxazole-4-carboxylate] | 0.21 µM |
| COC(=O)c1coc(CN2CCC(CNC(=O)c3n[nH]c4ccc(Br)cc34)CC2)n1 [Compound 11, Methyl 2-{[4-({[(5-bromo-1H-indazol-3-yl)carbonyl]amino}methyl)piperidin-1-yl]methyl}-1,3-oxazole-4-carboxylate] | 0.36 µM |
| CCOC(=O)c1nc(CN2CCC(CNC(=O)c3n[nH]c4ccc(OC)cc34)CC2)cs1 [Compound 13, Ethyl 4-{[4-({[(5-methoxy-1H-indazol-3-yl)carbonyl]amino}methyl)piperidin-1-yl]methyl}-1,3-thiazole-2-carboxylate] | 0.95 µM |
| COC(=O)c1ccoc1CN1CCC(CNC(=O)c2n[nH]c3ccc(OC)cc23)CC1 [Compound 14, Methyl 2-{[4-({[(5-methoxy-1H-indazol-3-yl)carbonyl]amino}methyl)piperidin-1-yl]methyl}furan-3-carboxylate] | 0.23 µM |
| CCOC(=O)c1ccc(CN2CCC(CNC(=O)c3n[nH]c4ccc(Br)cc34)CC2)o1 [Compound 15, Ethyl 5-{[4-({[(5-bromo-1H-indazol-3-yl)carbonyl]amino}methyl)piperidin-1-yl]methyl}furan-2-carboxylate] | 0.26 µM |
| COc1ncccc1-c1ccc2[nH]nc(C(=O)NCC3CCN(Cc4ccc(C(=O)O)o4)CC3)c2c1 [Compound 16, 5-({4-[({[5-(2-Methoxypyridin-3-yl)-1H-indazol-3-yl]carbonyl}amino)methyl]piperidin-1-yl}methyl)furan-2-carboxylic acid hydrate] | 0.36 µM |
| COc1ccc(-c2ccc3[nH]nc(C(=O)NCC4CCN(Cc5ccc(C(=O)O)o5)CC4)c3c2)cn1 [Compound 17, 5-({4-[({[5-(6-Methoxypyridin-3-yl)-1H-indazol-3-yl]carbonyl}amino)methyl]piperidin-1-yl}methyl)furan-2-carboxylic acid hydrate] | 0.02 µM |
| COc1ccc(-c2ccc3[nH]nc(C(=O)NCC4CCN(Cc5ccc(C(=O)O)o5)CC4)c3c2)cc1 [Compound 18, 5-({4-[({[5-(4-Methoxyphenyl)-1H-indazol-3-yl]carbonyl}amino)methyl]piperidin-1-yl}methyl)furan-2-carboxylic acid hydrate] | 0.3 µM |
| O=C(O)c1ccc(CN2CCC(CNC(=O)c3n[nH]c4ccc(-c5cccc(F)c5F)cc34)CC2)o1 [Compound 19, 5-({4-[({[5-(2,3-Difluorophenyl)-1H-indazol-3-yl]carbonyl}amino)methyl]piperidin-1-yl}methyl)furan-2-carboxylic acid] | 0.01 µM |
| O=C(O)c1ccc(CN2CCC(CNC(=O)c3n[nH]c4ccc(-c5ccccc5F)cc34)CC2)o1 [Compound 20, 5-({4-[({[5-(2-Fluorophenyl)-1H-indazol-3-yl]carbonyl}amino)methyl]piperidin-1-yl}methyl)furan-2-carboxylic acid hydrate] | 0.02 µM |
| O=C(O)c1ccc(CN2CCC(CNC(=O)c3n[nH]c4ccc(Br)cc34)CC2)o1 [Compound 22, 5-{[4-({[(5-Bromo-1H-indazol-3-yl)carbonyl]amino}methyl)piperidin-1-yl]methyl}furan-2-carboxylic acid] | 0.21 µM |
| CCOC(=O)c1ccc(CN2CCC(CNC(=O)c3n[nH]c4ccc(OC)cc34)CC2)o1 [Compound 23, Ethyl 5-{[4-({[(5-methoxy-1H-indazol-3-yl)carbonyl]amino}methyl)piperidin-1-yl]methyl}furan-2-carboxylate] | 0.33 µM |
| COc1ccc2[nH]nc(C(=O)NCC3CCN(CCN4C[C@@H](C)O[C@@H](C)C4)CC3)c2c1 [Compound 25, N-[(1-{2-[(2R,6S)-2,6-dimethylmorpholin-4-yl]ethyl}piperidin-4-yl)methyl]-5-methoxy-1H-indazole-3-carboxamide] | > 1 µM and 1.4 µM |
| COc1ccc2[nH]nc(C(=O)NCC3CCN(CCCN4C[C@@H](C)O[C@@H](C)C4)CC3)c2c1 [Compound 26, N-[(1-{3-[(2R,6S)-2,6-dimethylmorpholin-4-yl]propyl}piperidin-4-yl)methyl]-5-methoxy-1H-indazole-3-carboxamide] | > 1 µM and 2.1 µM |

molecular target: T1, human GSK-3β; test: LanthaScreen TR-FRET Eu Kinase binding and displacement assay; conditions: five concentrations 100 μM to 10 nM, duplicate
Procedure: as §1, §2

| SMILES | IC50 |
| --- | --- |
| COc1ccc2[nH]nc(C(=O)NCC3CCN(Cc4nc(C(=O)O)cs4)CC3)c2c1 [Compound 8, 2-{[4-({[(5-Methoxy-1H-indazol-3-yl)carbonyl]amino}methyl)piperidin-1-yl]methyl}-1,3-thiazole-4-carboxylic acid] | 0.17 µM |
| COc1ccc2[nH]nc(C(=O)NCC3CCN(Cc4nc(C(=O)O)co4)CC3)c2c1 [Compound 10, 2-{[4-({[(5-Methoxy-1H-indazol-3-yl)carbonyl]amino}methyl)piperidin-1-yl]methyl}-1,3-oxazole-4-carboxylic acid hydrate] | 0.31 µM |
| COc1ccc2[nH]nc(C(=O)NCC3CCN(CCC4CCCC(C)C4)CC3)c2c1 (stereo not drawn) [Compound 27, 5-methoxy-N-({1-[2-(3-methylcyclohexyl)ethyl]piperidin-4-yl}methyl)-1H-indazole-3-carboxamide] | 0.31 µM |
| COc1ccc2[nH]nc(C(=O)NCC3CCN(Cc4ccnc(C(=O)O)c4)CC3)c2c1 [Compound 28, 4-{[4-({[(5-methoxy-1H-indazol-3-yl)carbonyl]amino}methyl)piperidin-1-yl]methyl}pyridine-2-carboxylic acid] | 0.45 µM |
| COc1ccc2[nH]nc(C(=O)NCC3CCN(Cc4ccc(C(=O)O)nc4)CC3)c2c1 [Compound 29, Sodium 5-{[4-({[(5-methoxy-1H-indazol-3-yl)carbonyl]amino}methyl)piperidin-1-yl]methyl}pyridine-2-carboxylate] | 0.32 µM |
| COc1ccc2[nH]nc(C(=O)NCC3CCN(Cc4noc(C(N)=O)n4)CC3)c2c1 [Compound 30, N-({1-[(5-carbamoyl-1,2,4-oxadiazol-3-yl)methyl]piperidin-4-yl}methyl)-5-methoxy-1H-indazole-3-carboxamide] | 0.31 µM |
